# Data as given in US9872514B2, “Compounds, compositions, and methods for reducing or eliminating bitter taste” (Chromocell Corporation, priority 2010, dated 2018).
# Read-outs that look alike come from different tables or passages of the source.
# What was measured:
# Format in all cases: in vivo, humans
# [1] = tested on: bitter taste of an aqueous solution of potassium lactate; assay: Sip and spit bitterness rating of aqueous potassium lactate test solutions; conditions: Homo sapiens, aqueous potassium lactate 41 g/L, 1% EtOH, dash = none of the tested conc.
# Procedure: (§1) A set of KCl solution standards was developed and each standard solution was assigned a bitterness taste score of 0-15 (corresponding to aqueous KCl concentrations of 0 mM-120 mM). Panelists were trained to recognize these standards. In addition, before each day of testing, panelists were tested to see if they could determine differences in taste between the standard solutions. If a panelist was unable to recognize a change in KCl concentration, they were excluded from the panel for that day.
# (§2) In a blind taste test, panelists were asked to compare the bitter taste of a small quantity (e.g., 8 ml) of each of the KCl Test Solutions to the taste of a KCl solution standard, without swallowing (see, e.g., Table 1). Specifically, panelists were asked to rate the bitterness of each KCl Test Solution on a scale of 0-15 using the same scale developed for the KCl solution standards. Each sample was tested in 2-4 discrete taste test experiments. Panelists were asked to rinse with water, eat a cracker, and wait approximately 10 minutes between samples.
# Edible potassium lactate solution compositions (“potassium lactate test solutions”) were prepared by first dissolving varying amounts of the test compounds in an amount of ethanol or water (depending on the solubility of the compound) to create a 5 mg/mL stock compound solution. An amount of this stock compound solution is then added to an aqueous potassium lactate solution. Enough EtOH is then added to the resulting stock compound/potassium lactate solution so that the final potassium lactate test solution contains 1% EtOH. Potassium lactate solution standards were similarly prepared by dissolving various amounts of potassium lactate in water and ethanol without adding any test compound.
# The effect of the test compounds on the perception of the bitter taste of an aqueous solution of potassium lactate in humans was evaluated using the “sip and spit” test described in Example 2.
# [2] = tested on: bitter taste of an aqueous solution of KCl; assay: Sip and spit bitterness rating of aqueous KCl test solutions; conditions: Homo sapiens, aqueous KCl 4.85 g/L, 1% EtOH, bitterness scored 0-15 vs KCl standard, dash = none of the tested conc.
# Procedure: An amount of this stock compound solution is then added to an aqueous KCl solution. Enough EtOH is then added to the resulting stock compound/KCl solution so that the final KCl test solution contains 1% EtOH. KCl solution standards were similarly prepared by dissolving various amounts of KCl in water and ethanol without adding any test compound.
# The effect of the test compounds an the perception of the bitter taste of an aqueous solution of KCl in humans was evaluated using a “sip and spit” test as follows.
# as §1, §2
# [3] = tested on: bitter taste of KCl in solid-matrix foodstuffs; assay: Latin Square-2AFC chew and spit test of KCl solid turkey; conditions: Homo sapiens, 1.6% KCl (80% KCl:20% NaCl marinade), dash = none of the tested conc.
# Procedure: The effect of the test compounds on the perception of the bitter taste of KCl in solid-matrix foodstuffs in humans was evaluated using a “chew and spit” test using a Latin Square-2AFC testing method as follows.
# Two types of marinades containing Prague powder, sugar, Evian™ water, KCl and/or NaCl in water were prepared. One marinade contained 80% KCl, 20% NaCl (by weight) (i.e., marinade concentration of […]). A second marinade contained 60% KCl:40% NaCl (by weight) (i.e., marinade concentration of 1.2% KCl). Compound stock solutions were prepared by dissolving an amount of test compound in ethanol or water (depending on the solubility of the compound) to create a 5 mg/mL stock compound solution. Enough ethanol was added to each stock compound solution to generate a final stock compound solution containing 1% ethanol. The marinade, the stock compound solution and ground turkey were added to a mixing bowl, mixed at low-speed for about 2 minutes, and then mixed at high-speed for about 5 minutes. The marinated turkey mixture was divided into one pound aliquots, vacuum sealed into food saver bags, and allowed to marinate for about 2 hours in a refrigerator. The vacuum-sealed turkey was then cooked in an about 86° C. water bath for about 30 minutes. If after about 30 minutes, the internal turkey temperature had not reached about 170° F., the vacuum-sealed turkey was cooked for about an additional 5 minutes. The vacuum-sealed turkey was then refrigerated for about two weeks before taste testing. KCl standards were similarly prepared by dissolving KCl in the marinade without adding any test compound during the turkey preparation.
# The panelists tasted portions by chewing and spitting. In order to eliminate any effects of sample order, a complete Latin Square design was employed so that each possible order of sample presentation was utilized across subjects. Each simple was tested in several discrete taste test experiments. Panelists were asked to rinse with water, cat a cracker, and wait about 10 minutes between samples. In each case, the panelists were asked to choose the sample that tasted less bitter.
# [4] = tested on: bitter taste of an aqueous solution of KCl; assay: Latin Square-2AFC sip and spit test of aqueous KCl solutions; conditions: Homo sapiens, aqueous KCl 4.85 g/L, Latin Square-2AFC vs KCl standard, dash = none of the tested conc.
# Procedure: The effect of the test compounds on the perception of the bitter taste of an aqueous solution of KCl in humans was evaluated using a “sip and spit” test using a Latin Square-2AFC testing method as follows.
# In a blind taste test, panelists were asked to compare the bitter taste of a small quantity (e.g., 8 ml) of a KCl Test Solution to the taste of a KCl solution standard (prepared as described in Example 1), without swallowing. NaCl solution standards were prepared as described in Example 1.
# In order to eliminate any effects of sample order, a complete Latin Square design was employed so that each possible order of sample presentation was utilized across subjects. Each sample was tested in several discrete taste test experiments. Panelists were asked to rinse with water, eat a cracker, and wait about 10 minutes between samples. In each case, the panelists were asked to choose the sample which tasted “less bitter.” Illustrative results of the aqueous solution Latin Square-2AFC testing are presented in Table 5.
# [5] = tested on: bitter taste of potassium lactate foodstuffs; assay: 2AFC sip and spit test of potassium lactate turkey foodstuff slurries; conditions: turkey slurry, 4.5% potassium lactate, 2AFC vs standard; dash = none of the tested conc.
# Procedure: (§3) In a blind taste test, panelists received two portions of turkey slurry—one portion being the KCl foodstuff slurry standard and the other being one of the KCl test foodstuff slurries (each prepared as described in Example 5). The panelists tasted each of the portions by sipping and spitting. Each sample was tested in 2-4 discrete taste test experiments. Panelists were asked to rinse with water, eat a cracker, and wait about 10 minutes between samples. In each case, the panelists were asked to compare the bitter taste of the two turkey samples to each other (i.e., panelists were asked to indicate which sample was less bitter).
# Edible potassium lactate food compositions (“potassium lactate test foodstuff slurries”) were prepared as follows. Dehydrated, salt-free turkey powder was weighed and mixed with various amounts of potassium lactate and/or sodium lactate and then solubilized with boiling water to create a homogenized solubilized turkey slurry. Varying amounts of the test compounds were dissolved in an amount of ethanol or water depending on the solubility of the compound) to create a 5 mg/mL stock compound solution. An amount of this stock compound solution was then added to the turkey slurry. Enough EtOH is then added to the resulting stock compound/turkey slurry so that the final slurry contains 1% EtOH. The final slurry was again homogenized by boiling and mixing and allowed to cool to yield the final slurry for taste testing. Potassium lactate foodstuff slurry standards were similarly prepared without any test compound.
# The effect of the test compounds on the perception of the bitter taste of potassium lactate foodstuffs in humans was evaluated using the two-alternative-forced-choice “sip and spit” test described in Example 6.
# [6] = tested on: bitter taste of KCl foodstuff slurries; assay: Two-alternative forced choice (2AFC) sip and spit test of KCl turkey foodstuff slurries; conditions: Homo sapiens, turkey slurry, 1.6% KCl, 2AFC vs KCl slurry standard, dash = none of the tested conc.
# Procedure: Edible KCl food compositions (“KCl test foodstuff slurries”) were prepared as follows. Dehydrated, salt-free turkey powder was weighed and mixed with various amounts of KCl and/or NaCl and then solubilized with boiling water to create a homogenized solubilized turkey slurry. Varying amounts of the test compounds were dissolved in an amount of ethanol or water (depending on the solubility of the compound) to create a 5 mg/mL stock compound solution. An amount of this stock compound solution was then added to the turkey slurry. Enough EtOH is then added to the resulting stock compound/turkey slurry so that the slurry contains 1% EtOH. The slurry was again homogenized by boiling and mixing and allowed to cool to yield the final KCl test foodstuff slurry for taste testing KCl foodstuff slurry standards were similarly prepared without any test compound.
# The effect of the test compounds on the perception of the bitter taste of KCl foodstuff slurries in humans was evaluated using a two-alternative-forced-choice “sip and spit” test as follows.
# as §3
# [7] = tested on: bitter taste of KCl foodstuff slurries; assay: Latin Square-2AFC sip and spit test of KCl turkey slurry; conditions: 1.6% KCl, dash = none of the tested conc.
# Procedure: The effect of the test compounds on the perception of the bitter taste of KCl foodstuff slurries in humans was evaluated using a “sip and spit” test using a Latin Square-2AFC testing method as follows.
# In a blind taste test, panelists received two portions of turkey slurry—one portion being the KCl foodstuff slurry standard and the other being one of the KCl test foodstuff slurries (prepared as described in Example 5). NaCl foodstuff slurry standards were prepared as described in Example 1.
# The panelists tasted each of the portions by sipping and spitting. In order to eliminate any effects of sample order, a complete Latin Square design was employed so that each possible order of sample presentation was utilized across subjects. Each sample was tested in several discrete taste test experiments. Panelists were asked to rinse with water, eat a cracker, and wait about 10 minutes between samples. In each case, the panelists were asked to choose the sample that tasted less bitter.
# [8] = read-out: Conc. Where Decrease in Bitter Taste Was Discerned
# [9] = read-out: Conc. Where Decrease in Bitter Taste Discerned and p ≦ 0.1
# [10] = read-out: Conc. at Which At Least 50% of Panelist Discerned Decrease in Bitter Taste and p ≦ 0.1
# [11] = read-out: Conc. at Which At Least 50% of Panelist Discerned Decrease in Bitter Taste
Structure (SMILES),"minimal effective concentration [1, 8] [µg/mL]","minimal effective concentration [2, 9] [µg/mL]","minimal effective concentration [3, 10] [µg/mL]","minimal effective concentration [1, 9] [µg/mL]",further results
CC(=O)OC/C=C(\C)CCC[C@H](C)CCC[C@H](C)CCCC(C)C [Compound 41],5,10,2.5,–,"minimal effective concentration [2, 8]: 10 µg/mL; minimal effective concentration [4, 10]: 1 µg/mL"
C[C@H]1CC[C@@H](C(C)(C)O)CC2=C1CC[C@@H]2C [Compound 120],–,–,–,–,"Conc. at Which At Least 50% of Panelist Discerned Decrease in Bitter Taste [5]: 10 ppm; minimal effective concentration [6, 11]: 10 µg/mL"
CCC(=O)OCCC(C)CCC=C(C)C (stereo not shown) [Compound 10],0.1,1,–,–,"minimal effective concentration [6, 11]: 0.1 µg/mL; minimal effective concentration [3, 11]: 0.5 µg/mL"
COc1ccc2c(=O)cc(-c3ccccc3)oc2c1 [Compound 95],–,–,–,1,Conc. at Which At Least 50% of Panelist Discerned Decrease in Bitter Taste and p ≦ 0.1 [5]: 10 ppm
CCC1(O)C2(C)CCC(C2)C1(C)C (stereo not shown) [Compound 85],5,1,1,5,"minimal effective concentration [4, 11]: 0.005 µg/mL"
CC(C)=CCC/C(C)=C\CO [Compound 31],–,10,4,10,"minimal effective concentration [6, 11]: 10 µg/mL"
CC12CCC(CC1=O)C2(C)C (stereo not shown) [Compound 74],1,–,10,1,"Conc. at Which At Least 50% of Panelist Discerned Decrease in Bitter Taste [5]: 1 ppm; minimal effective concentration [6, 11]: 10 µg/mL; minimal effective concentration [4, 10]: 1 µg/mL"
O=C1CCc2ccccc2O1 [Compound 53],10,10,–,10,"Conc. at Which At Least 50% of Panelist Discerned Decrease in Bitter Taste [5]: 5 ppm; minimal effective concentration [4, 11]: 1 µg/mL"
CC(C)=CCC/C(C)=C/COC(=O)Cc1ccccc1 [Compound 26],10,1,–,10,Conc. at Which At Least 50% of Panelist Discerned Decrease in Bitter Taste [7]: 0.6 ppm
C/C=C/C(=O)C1C(C)=CCCC1(C)C (stereo not shown) [Compound 2],1,10,–,–,"Conc. at Which At Least 50% of Panelist Discerned Decrease in Bitter Taste [7]: 25 ppm; minimal effective concentration [3, 11]: 10 µg/mL; minimal effective concentration [4, 11]: 2 µg/mL"
CCC(=O)OC/C=C(\C)CCC=C(C)C [Compound 22],–,1,–,1,"minimal effective concentration [4, 10]: 0.25 µg/mL"
CC(C)=CCCC(C)CCOC(=O)C(C)C (stereo not shown) [Compound 11],–,10,–,–,"minimal effective concentration [4, 11]: 1 µg/mL"
CC(C)=CCC/C(C)=C\COC(=O)C(C)C [Compound 34],–,–,–,1,"minimal effective concentration [3, 11]: 2 µg/mL"
OCc1ccc(O)cc1 [Compound 69],–,1,1,–,"minimal effective concentration [6, 10]: 10 µg/mL"
